Data on six compounds can be found in patent US20060079453A1, “Hla binding peptides and their uses” (priority 2002, published 2006).

No end group written: not given here.

What all share (experiment): biochemical
Holding throughout (type): binding

The target of one experiment is HLA-DR DRB1*0101 (DR1) (Homo sapiens, UniProt P01903+P01911, A100R/D57E/F55L/F60I/F76Y/I96L/L162R/M171V/P40L/Q125E/R42F/V115G/Y59C). As to conditions: DRB1 *0101.
The target in the next experiment is HLA-DR DRB1*0701 (DR7) (Homo sapiens, UniProt P01903+P01911, A100R/A102G/A103Q/D57E/D86V/E43K/F76Y/K127E/L162R/M171V/P40G/Q125H/Q99D/R33Q/R42Y/R54Q/S133A/S66F/T210M/V115G/Y107V/Y59L/Y89S). As to conditions: DRB1 *0701.
Another experiment deals with HLA-DR DRB1*0802 (DR8) (Homo sapiens, UniProt P01903+P01911, A100R/A103L/A169T/F76Y/H45Y/I96F/K41T/L162R/M171V/P40S/Q125H/Q178H/Q39Y/Q99D/R218S/R42G/S66Y/V115G/W38E).
The next experiment has as its target HLA-DR DRB1*0901 (DR9) (Homo sapiens, UniProt P01903+P01911, A100R/A103E/D57H/D86V/F55Y/F60I/F76Y/I96F/K127E/L162R/M171V/P40D/Q125H/Q99R/R33Q/R42F/S133A/S66N/T210M/V115G/W38K/Y107V/Y59G/Y89S). The settings on record: DRB1 *0901.
For another experiment, the target named is HLA-DR DRB1*1101 (DR11) (Homo sapiens, UniProt P01903+P01911, A100R/A169T/A87E/I96F/K41T/L162R/M171V/P40S/Q125H/Q178H/Q39Y/Q99D/R42S/S66Y/T262R/V115G/W38E). The settings on record: DRB1 *1101.
For another experiment, the target named is HLA-DR DRB1*1302 (DR13) (Homo sapiens, UniProt P01903+P01911, A100E/A169T/K41T/L162R/M171V/P40S/Q125H/Q178H/Q39Y/Q99D/R42S/S66N/T262R/V115G/W38E/Y61H). As to conditions: DRBI *1302.
The target in a further experiment is HLA-DR DRB3*0101 (DR52) (Homo sapiens, UniProt P01903+P79483).
The target in the next experiment is HLA-DR DRB4*0101 (DR53) (Homo sapiens, UniProt P01903+P13762, G164S). As to conditions: DRB4 *0101.
The next experiment addresses HLA-DR DRB5*0101 (DR51) (Homo sapiens, UniProt P01903+Q30154). The settings on record: DRB5 *0101.
Another experiment deals with HLA-DR DRB1*0401 (DR4) (Homo sapiens, UniProt P01903+P01911, A100K/A169T/F76Y/I96L/K127E/L162R/M171V/N62H/P40V/Q125Y/R42H/S133A/S149N/S66Y/V115G/V209L/W38E). As to conditions: DRB1 *0401.
A further experiment deals with HLA-DR DRB1*1501 (DR15) (Homo sapiens, UniProt P01903+P01911). The settings on record: DRBI *1501.

HLA-DR DRB1*1302 (DR13), sequence (P01903 26-254 limits assumed, other chains not shown): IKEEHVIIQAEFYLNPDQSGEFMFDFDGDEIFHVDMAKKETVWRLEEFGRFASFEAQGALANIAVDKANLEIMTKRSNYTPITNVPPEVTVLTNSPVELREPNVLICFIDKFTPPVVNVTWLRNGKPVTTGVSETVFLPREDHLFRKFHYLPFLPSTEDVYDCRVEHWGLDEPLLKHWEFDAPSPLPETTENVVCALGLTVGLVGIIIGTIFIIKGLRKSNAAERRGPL
HLA-DR DRB1*1101 (DR11), sequence (P01903 26-254 limits assumed, other chains not shown): as above

What is called IC50 is the concentration that gives 50% inhibition. High values mean a need for much substance, low ones inhibition by little substance. With `CC[C@H](C)[C@H](NC(=O)[C@H](CCC(N)=O)NC(=O)[C@@H](NC(=O)[C@H](Cc1ccccc1)NC(=O)[C@H](CC(N)=O)NC(=O)[C@H](Cc1ccc(O)cc1)NC(=O)[C@H](CC(C)C)NC(=O)[C@H](Cc1ccccc1)NC(=O)[C@@H](N)CCCCN)[C@@H](C)O)C(=O)N1CCC[C@H]1C(=O)N[C@@H](Cc1c[nH]cn1)C(=O)N[C@@H](CC(C)C)C(=O)N[C@@H](C)C(=O)NCC(=O)N[C@H](C(=O)O)[C@@H](C)O`, the IC50 worked out at 340 nM at HLA-DR DRB1*0101 (DR1); 30 nM against HLA-DR DRB1*0701 (DR7); 415 nM against HLA-DR DRB1*0802 (DR8); 54 nM at HLA-DR DRB1*0901 (DR9); 91 nM against HLA-DR DRB1*1101 (DR11); 221 nM at HLA-DR DRB1*1302 (DR13). The results for the IC50 on HLA-DR DRB3*0101 (DR52), against HLA-DR DRB4*0101 (DR53) and at HLA-DR DRB5*0101 (DR51) were 10200 nM, 256 nM and 1600 nM, respectively.

Turning to GQRVPVSHSFPHPLY, the concentration for half-maximal inhibition (IC50) was 1560 nM against HLA-DR DRB1*0101 (DR1); above 40000 nM on HLA-DR DRB1*0401 (DR4); 629 nM against HLA-DR DRB1*0701 (DR7); above 245000 nM against HLA-DR DRB1*0802 (DR8); 102 nM against HLA-DR DRB1*0901 (DR9); above 200000 nM against HLA-DR DRB1*1101 (DR11). Moreover, the IC50 against HLA-DR DRB1*1302 (DR13) is 703 nM; against HLA-DR DRB3*0101 (DR52) it was above 14900 nM; against HLA-DR DRB4*0101 (DR53), 9860 nM; against HLA-DR DRB5*0101 (DR51) it was above 200000 nM.

Consider `CC[C@H](C)[C@H](NC(=O)[C@@H](NC(=O)[C@H](Cc1c[nH]cn1)NC(=O)[C@@H](N)CCCNC(=N)N)C(C)C)C(=O)N[C@@H](Cc1ccc(O)cc1)C(=O)N[C@@H](C)C(=O)N1CCC[C@H]1C(=O)N[C@@H](CO)C(=O)N[C@@H](CO)C(=O)N[C@@H](Cc1c[nH]cn1)C(=O)N[C@@H](CC(N)=O)C(=O)N[C@@H](CCCCN)C(=O)N[C@@H](Cc1ccc(O)cc1)C(=O)N[C@@H](C)C(=O)NCC(=O)O`, for which the IC50 turned out to be 2170 nM at HLA-DR DRB1*0101 (DR1); 481 nM against HLA-DR DRB1*0401 (DR4); 31200 nM on HLA-DR DRB1*0701 (DR7); 11700 nM against HLA-DR DRB1*0802 (DR8); 481 nM against HLA-DR DRB1*0901 (DR9); 13400 nM against HLA-DR DRB1*1101 (DR11). Further, the IC50 on HLA-DR DRB3*0101 (DR52) is above 62800 nM; on HLA-DR DRB4*0101 (DR53), 5290 nM; against HLA-DR DRB5*0101 (DR51), 88 nM.

As to LRMMNDQLMFLERAF, the IC50 came out at 2700 nM at HLA-DR DRB1*0101 (DR1); 392 nM against HLA-DR DRB1*0401 (DR4); 17500 nM against HLA-DR DRB1*0701 (DR7); 2490 nM against HLA-DR DRB1*0802 (DR8); 4600 nM at HLA-DR DRB1*0901 (DR9); 1830 nM against HLA-DR DRB1*1101 (DR11). Besides, the IC50 against HLA-DR DRB1*1302 (DR13) worked out at 1310 nM; at HLA-DR DRB3*0101 (DR52), 1570 nM; against HLA-DR DRB4*0101 (DR53), 50 nM; against HLA-DR DRB5*0101 (DR51), 758 nM.

As to `CSCC[C@H](NC(=O)CNC(=O)[C@H](CC(C)C)NC(=O)[C@H](CCC(N)=O)NC(=O)[C@@H](NC(=O)[C@H](CC(C)C)NC(=O)[C@H](CCC(N)=O)NC(=O)CNC(=O)[C@@H](N)Cc1ccccc1)[C@@H](C)O)C(=O)N[C@@H](CCC(=O)O)C(=O)N[C@@H](CCC(N)=O)C(=O)N[C@@H](Cc1c[nH]cn1)C(=O)N[C@@H](Cc1ccc(O)cc1)C(=O)N[C@@H](CCC(=O)O)C(=O)N[C@@H](CC(C)C)C(=O)O`, the IC50 against HLA-DR DRB1*0101 (DR1) is 2260 nM; at HLA-DR DRB1*0401 (DR4), 3210 nM; at HLA-DR DRB1*0701 (DR7) it was above 62500 nM; at HLA-DR DRB1*0802 (DR8) it was 110000 nM; on HLA-DR DRB1*0901 (DR9), above 187000 nM; at HLA-DR DRB1*1302 (DR13), above 35000 nM. In addition, the half-maximal inhibitory concentration (IC50) on HLA-DR DRB1*1501 (DR15) is above 22800 nM; against HLA-DR DRB3*0101 (DR52), above 14400 nM; on HLA-DR DRB4*0101 (DR53), 543 nM; against HLA-DR DRB5*0101 (DR51), at least 100000 nM.

Turning to QWVLTAAHCLKKNSQ, the IC50 on HLA-DR DRB1*0101 (DR1) is 895 nM; against HLA-DR DRB1*0401 (DR4), above 40000 nM; at HLA-DR DRB1*0701 (DR7), 3400 nM; on HLA-DR DRB1*0802 (DR8), 98000 nM; against HLA-DR DRB1*0901 (DR9), 4810 nM; at HLA-DR DRB1*1302 (DR13), above 35000 nM. The IC50 against HLA-DR DRB1*1501 (DR15) is above 45500 nM; against HLA-DR DRB3*0101 (DR52) it was above 14900 nM; against HLA-DR DRB4*0101 (DR53), 14400 nM; against HLA-DR DRB5*0101 (DR51) it was 382 nM.
